Measured values published in PubChem BioAssay AID1259407 (Chemical Carcinogenesis Research Information System (CCRIS), 2018).
Active and inactive are the calls of the source. How the calls were made is not given here.

Test system: CCRIS mutagenicity, Ames/micronucleus/aberration tests
Assay: CCRIS mutagenicity studies

Measured: mutagenic call

Cc1cc(N=Nc2ccccc2C)ccc1N
active: Test System: AMES SALMONELLA TYPHIMURIUM, Strain/Indicator: TA98, Metabolic Activation: HAMSTER, LIVER, S-9, AROCLOR 1254, Method: STANDARD PLATE active; positive | Test System: AMES SALMONELLA TYPHIMURIUM, Strain/Indicator: TA98, Metabolic Activation: HAMSTER, LIVER, S-9, Method: PREINCUBATION (PRIVAL METHOD) active; positive | Test System: AMES SALMONELLA TYPHIMURIUM, Strain/Indicator: TA98, Metabolic Activation: RAT LIVER S-9, Method: PREINCUBATION active; positive | Test System: AMES SALMONELLA TYPHIMURIUM, Strain/Indicator: TA98, Metabolic Activation: RAT LIVER, MICROSOMES, AROCLOR 1254, Method: PREINCUBATION active; positive | Test System: AMES SALMONELLA TYPHIMURIUM, Strain/Indicator: TA98, Metabolic Activation: RAT, LIVER, MICROSOMES, AROCLOR 1254, Method: PREINCUBATION active; positive | Test System: AMES SALMONELLA TYPHIMURIUM, Strain/Indicator: TA98, Metabolic Activation: RAT, LIVER, S-9, AROCLOR 1254, HAMSTER, LIVER, S-9, AROCLOR 1254, Method: STANDARD PLATE active; positive | Test System: AMES SALMONELLA TYPHIMURIUM, Strain/Indicator: TA98, Metabolic Activation: RAT, LIVER, S-9, AROCLOR 1254, Method: STANDARD PLATE active; positive | Test System: AMES SALMONELLA TYPHIMURIUM, Strain/Indicator: TA98, Metabolic Activation: RAT, LIVER, S-9, KC500 OR PHENOBARBITAL, Method: LIQUID SUSPENSION active; positive | Test System: AMES SALMONELLA TYPHIMURIUM, Strain/Indicator: TA98, Metabolic Activation: RAT, LIVER, S-9, PCB, Method: PREINCUBATION active; positive | Test System: AMES SALMONELLA TYPHIMURIUM, Strain/Indicator: TA98, Metabolic Activation: RAT, LIVER, S-9, POLYCHLORINATED BIPHENYLS, Method: PREINCUBATION active; positive | Test System: AMES SALMONELLA TYPHIMURIUM, Strain/Indicator: TA100, Metabolic Activation: HAMSTER, LIVER, S-9, AROCLOR 1254, Method: STANDARD PLATE active; positive | Test System: AMES SALMONELLA TYPHIMURIUM, Strain/Indicator: TA100, Metabolic Activation: HAMSTER, LIVER, S-9, Method: PREINCUBATION (PRIVAL METHOD) active; positive | Test System: AMES SALMONELLA TYPHIMURIUM, Strain/Indicator: TA100, Metabolic Activation: RAT LIVER S-9, Method: PREINCUBATION active; positive | Test System: AMES SALMONELLA TYPHIMURIUM, Strain/Indicator: TA100, Metabolic Activation: RAT, LIVER, S-9, AROCLOR 1254, HAMSTER, LIVER, S-9, AROCLOR 1254, Method: STANDARD PLATE active; positive | Test System: AMES SALMONELLA TYPHIMURIUM, Strain/Indicator: TA100, Metabolic Activation: RAT, LIVER, S-9, AROCLOR 1254, Method: STANDARD PLATE active; positive | Test System: AMES SALMONELLA TYPHIMURIUM, Strain/Indicator: TA100, Metabolic Activation: RAT, LIVER, S-9, KC500 OR PHENOBARBITAL, Method: LIQUID SUSPENSION active; positive | Test System: AMES SALMONELLA TYPHIMURIUM, Strain/Indicator: TA100, Metabolic Activation: RAT, LIVER, S-9, PCB, Method: PREINCUBATION active; positive | Test System: AMES SALMONELLA TYPHIMURIUM, Strain/Indicator: TA100, Metabolic Activation: RAT, LIVER, S-9, POLYCHLORINATED BIPHENYLS, Method: PREINCUBATION active; positive | Test System: AMES SALMONELLA TYPHIMURIUM, Strain/Indicator: TA1538, Metabolic Activation: RAT, LIVER, S-9, AROCLOR 1254, HAMSTER, LIVER, S-9, AROCLOR 1254, Method: STANDARD PLATE active; positive | Test System: AMES SALMONELLA TYPHIMURIUM, Strain/Indicator: TA1538, Metabolic Activation: RAT, LIVER, S-9, AROCLOR 1254, Method: STANDARD PLATE active; positive | Test System: MOUSE LYMPHOMA, Strain/Indicator: L5178Y (TK+/TK-), Metabolic Activation: RAT, LIVER, S-9, AROCLOR 1254, Method: SUSPENSION/PLATE active; positive. reevaluation of results: positive
inactive: Test System: AMES SALMONELLA TYPHIMURIUM, Strain/Indicator: TA98, Metabolic Activation: NONE, Method: PREINCUBATION inactive; negative | Test System: AMES SALMONELLA TYPHIMURIUM, Strain/Indicator: TA98, Metabolic Activation: NONE, Method: STANDARD PLATE inactive; negative | Test System: AMES SALMONELLA TYPHIMURIUM, Strain/Indicator: TA98, Metabolic Activation: RAT LIVER, CYTOSOL, AROCLOR 1254, Method: PREINCUBATION inactive; negative | Test System: AMES SALMONELLA TYPHIMURIUM, Strain/Indicator: TA98, Metabolic Activation: RAT, LIVER, MICROSOMES, O-AMINOAZOTOLUENE, Method: PREINCUBATION inactive; negative | Test System: AMES SALMONELLA TYPHIMURIUM, Strain/Indicator: TA98, Metabolic Activation: RAT, LIVER, MICROSOMES, Method: PREINCUBATION inactive; negative | Test System: AMES SALMONELLA TYPHIMURIUM, Strain/Indicator: TA100, Metabolic Activation: NONE, Method: PREINCUBATION inactive; negative | Test System: AMES SALMONELLA TYPHIMURIUM, Strain/Indicator: TA100, Metabolic Activation: NONE, Method: STANDARD PLATE inactive; negative | Test System: AMES SALMONELLA TYPHIMURIUM, Strain/Indicator: TA1538, Metabolic Activation: NONE, Method: STANDARD PLATE inactive; negative | Test System: Mouse lymphoma, Strain/Indicator: L5178Y (tk+/tk-), Metabolic Activation: None, Method: Suspension/plate inactive; negative

Nc1cccc2cccc(N)c12
inactive: Test System: AMES SALMONELLA TYPHIMURIUM, Strain/Indicator: TA98, Metabolic Activation: RAT LIVER, CYTOSOL, AROCLOR 1254, Method: STANDARD PLATE inactive; negative
active: Test System: AMES SALMONELLA TYPHIMURIUM, Strain/Indicator: TA98, Metabolic Activation: RAT LIVER, MICROSOMES, AROCLOR 1254, Method: STANDARD PLATE active; positive
